Here are results for two molecules from patent US8901137B2, “Methods of treating cancer using pyridopyrimidinone inhibitors of PI3K and mTOR in combination with autophagy inhibitors” (Exelixis, Inc., priority 2010, dated 2014).

The subject of one assay is PDAC cell lines. In words: Apoptosis induction in PDAC cell lines (PI/Annexin V, FACS). The class given is cell-based. The following applies: representative subset of PDAC cell lines, dual staining with PI and Annexin V, FIG. 1.
The subject of assay [1] is MiaPaCa2 cells. Kind of assay: Induction of apoptosis in MiaPaCa2 cells by FACS analysis. It is filed as cell-based. The following applies: 72 hours, FIG. 2A. In general terms: In flow cytometry, cells or beads pass a laser one at a time.
The subject of assay [2] is MiaPaCa2 cells. In words: Induction of autophagy by acridine orange staining and FACS analysis. The class given is cell-based. The conditions noted are these: FIG. 2B. The text has this:
Occurrence of cytoplasmic vacuoles in tumor cells treated with dual-targeted inhibitors are consistently observed. […] A variety of assays, including LC3-I to LC3-II conversion, acridin orange supravital staining, and MDC staining indicate whether treatment of pancreatic cancer cells with a compound of the invention will induce autophagy.

Assay [3] relates to Xenograft tumors derived from BxPC3 cells. Kind of assay: BxPC3 xenograft tumor growth in nude mice (Biological Example 8A). It is filed as in vivo. The following applies: BxPC3 subcutaneous flank tumors in nude mice, once daily dosing, 30 days; FIG. 4A. Here is the method:
Whether autophagy inhibition increased the activity of Compound A in vivo was explored. Xenograft tumors derived from BxPC3 cells were grown subcutaneously as flank tumors in nude mice to a size of 150 mm^3. Treatment with Compound A, alone or in combination with choloroquine, was administered for 30 days. Treatment with Compound A along and Compound A in combination with chloroquine was carried out by once daily dosing as indicated. Tumor volume was measured regularly. Tumors were harvested from euthanized mice for protein expression analyses.

The next assay concerns BxPC-3 cells. Kind of assay: BxPC-3 xenograft tumor growth in Nu/Nu mice (Biological Example 8B). It is filed as in vivo. The conditions noted are these: BxPC-3 s.c. in Nu/Nu mice; Compound A 30 mg/kg oral gavage, CQ 50 mg/kg i.p., 5 times/week, 28 days; FIG. 4B. The method, then:
Female 7-9 weeks old Nu/Nu mice (Harlan, FoxN 1/nude) were inoculated s.c. with 10^7 BxPC-3 cells. Mice were monitored according to the protocol approved by the University of California, San Francisco Institutional Animal Care and Use Committee. When tumors reached about 100 mm^3, mice were randomly assigned to one of […] treatment groups: vehicle control, Compound A 30 mg/kg, Chloroquine (CQ) 50 mg/kg, Compound A+CQ. Compound A was solubilized in water/10 mM HCl, Compound B was dissolved in water, both drugs were administered by oral gavage once a day 5 times/week. CQ was dissolved in saline and injected i.p daily, 5 times/week. Each treatment regimen was tested in cohorts of eight mice and the dosing was continued for 28 days. Tumor sizes were measured twice weekly in two dimensions using a caliper, tumor size (mm^3) was calculated as (length×width^2)/2. Animals were monitored for toxicity by measuring body weight twice weekly and monitoring overall activity.
Dbata are expressed as means+/−standard deviation. Statistical analysis was performed by using Student's t-test (two-tailed). P values of <0.05 were considered significant.

A further assay relates to pancreatic cancer cells. Kind of assay: Effect of autophagy inhibitors on autophagy and apoptosis of treated cells. The class given is cell-based. The text has this:
We therefore tested whether inhibitors of autophagy or apoptosis could shift the cellular response from autophagy to apoptosis or vice versa.

Consider `CCn1c(=O)c(-c2ccn[nH]2)cc2c(C)nc(N)nc21` [Compound A], for which the apoptosis induction result in the assay with PDAC cell lines was “apoptosis induction”. The induction of apoptosis entry in the assay on MiaPaCa2 cells [1] was “induction of apoptosis”. Also, in the assay on MiaPaCa2 cells [2], the induction of autophagy result is recorded as “induction of autophagy”. In addition, the “tumor growth (tumor volume)” value in assay [3] is reported as “no clear growth-inhibitory effect”. Besides, the “tumor growth (tumor size)” value with BxPC-3 cells is “no clear growth-inhibitory effect”.

On to `Cn1cnc(N)c2ncnc1-2` [Example 3-MA, 3-methyladenine], for which, in the assay on pancreatic cancer cells (autophagy inhibitor added to cells treated with dual-targeted inhibitor, data not shown), the autophagy entry is “inhibited autophagy”. Further, the “fraction of cells undergoing apoptosis” value in the assay on pancreatic cancer cells (autophagy inhibitor added, FIG. 3: Compound A with or without CQ 5 mM, 72 hours, PI/Annexin-V FACS) is recorded as “significantly increased”.
